The record followed here is patent US8697081B2, “Method of modulating neovascularization” (The Regents of the University of Michigan, priority 2008, dated 2014).

What all share (type): cell-based
The test system of test [1] is Human umbilical vein endothelial cells. Put plainly: Atomic force microscopy micro-indentation of pericellular ECM rigidity. Conditions: VEGF/HGF-stimulated, fibrin gels. As to the method: Since ECM rigidity regulates cytoskeletal remodeling and force generation, and consequently cell function (Engler et al., 2006. Cell, 126: 677-689; Wozniak and Chen, supra; Zajac and Discher, 2008. Curr. Opin. Cell Biol., 20: 609-615), atomic force microscopy micro-indentation (AFM) was employed to quantify endothelial cell-dependent changes in ECM remodeling. AFM was performed by first washing fibrin gels with phosphate buffered saline (PBS) after removing culture medium. Samples were mechanically characterized using an Asylum MFP-3D atomic force microscope (Asylum Research, Santa Barbara, Calif.). Micro-indentation was performed using a sphere-tipped probe (Novascan, Ames, Iowa) with a sphere diameter of 5 μm and a nominal spring constant of ˜60 pN/nm. The cantilever spring constant was confirmed by thermal fluctuation method (Thundat et al., 1994. Applied Physics Letters, 64: 2894-2896). The AFM system was calibrated by following the manufacturer's recommended procedure before each indentation measurement. AFM micro-indentation was performed in PBS solution at room temperature. Individual force-indentation profile was acquired at an indentation rate of 2 μm/s using deflection trigger mode with a trigger value of 200 nm. […] Shear modulus at each position was calculated from fitting force-indentation data using a Hertz sphere model (Richert et al., 2004, Biomacromolecules, 5: 1908-1916).

For test [2] the test system is unchanged. Briefly: VEGF/HGF-triggered vasculogenesis in 3-D fibrin gel, or growth in 2-D culture. Conditions: for growth of VEGF/HGF-stimulated endothelial cells: 2-D culture atop fibrin gels; for elongation, proliferation and neovessel formation: 3-D fibrin gel. The source says:
(§1) At sites of tissue damage, inflammation or neoplasia, fibrinogen is converted into a 3-D meshwork of fibrin fibrils that serve as a structural support for endothelial cells undergoing neovascularization (Chun et al. 2006. Cell, 125: 577-591; Hiraoka et al. 1998. Cell, 95: 365-377; Schafer and Werner. 2008. Nat. Rev. Mol. Cell Biol., 9: 628-638; Zhou et al. 2008. Genes Dev., 22: 1231-1243). This process can be recapitulated in vitro by embedding serum-supplemented human endothelial cells within a 3-D fibrin gel in the presence of the pro-angiogenic factors, VEGF and HGF. Human umbilical vein endothelial cells were isolated from umbilical cords by perfusion of the umbilical vein with type 3 collagenase (Worthington, Lakewood, N.J.) and cultured in Medium-199 (Invitrogen, Carlsbad, Calif.) with 20% human serum and 50 μg/ml endothelial cell growth supplement (ECGS; BD Biosciences, Franklin Lakes, N.J.). For 3-D culture, endothelial cells were suspended in a solution of thrombin and aprotinin (Sigma, St. Louis, Mo.) and mixed 1:1 with a solution of 6 mg/ml fibrinogen (Calbiochem, Gibbstown, N.J.). Vasculogenesis was triggered by treatment with 100 ng/ml VEGF, 50 ng/ml HGF (Genentech, San Francisco, Calif.). Fibronectin fibrillogenesis was tracked in 3-D by co-culture with human fibronectin (Sigma) labeled with Alexa-594 (Invitrogen).
In the presence of VEGF and HGF, endothelial cells i) underwent marked changes in cell morphology from spherical to elongated, ii) mobilized proteinases which degrade the surrounding fibrin, iii) assembled a pericellular meshwork of fibronectin fibrils, and iv) initiated proliferative and tubulogenic responses that result in the formation of an anastomosing network of neovessels over a 6 day culture period (Hiraoka, supra; Saunders et al., 2006. J Cell Biol. 175: 179-191; Zhou et al., 2008. Proc. Natl. Acad. Sci. USA, 97: 4052-4057). […] Cell, 125: 757-767; Saunders et al., supra; Tomasini-Johansson et al., 2001. J. Biol. Chem., 276: 23430-23439; Zhou et al, supra). Endothelial cells cultured atop—rather than embedded within—fibrin gels (herein referred to as 2-D culture) display distinct growth requirements from those observed in 3-D culture.
Taken together, cytoskeletal reorganization and contractile tension may serve as the biomechanical effectors that transmit structural and mechanical cues from the pericellular ECM to the nuclear envelope. VEGF/HGF-stimulated endothelial cells were treated with either (a) blebbistatin to inhibit myosin ATPase function, or (b) nocodazole to prevent microtubule assembly under 3-D culture conditions (Salpingidou et al., 2007. J. Cell Biol., 178: 897-904; Zhou et al., supra).

For test [3] the test system is unchanged. Briefly: Nuclear architecture (GFP-lamin A, emerin) and nuclear pore complex (NUP153) distribution. Particulars: for nuclear architecture: 2-D conditions; for nuclear shape / redistribution of nuclear pore complexes: 3-D fibrin gel.
From the text: as §1
As the 3-D-specific requirements for MT-MMPs and fibronectin matrix assembly correlate with changes in endothelial cell morphology, efforts were initiated to identify mechanistic routes whereby cell shape changes impact cell function. In particular, the impact of ECM remodeling on nuclear architecture was investigated. Nuclear architecture was tracked by either transfecting cells with a GFP-tagged form of the nuclear matrix filament, lamin A, or by immunostaining for the integral nuclear membrane protein, emerin (Dahl et al., 2008. Circ. Res., 102: 1307-1318; Glynn and Glover, 2005. Hum. Mol. Genet., 14: 2959-2969; Starr, 2009. J. Cell Sci., 122: 577-586; Stewart et al., 2007. Science, 318: 1408-1412). Under 2-D conditions, endothelial cell nuclei assumed an ellipsoid shape when cultured atop fibrin gels in the absence or presence of VEGF/HGF. In marked contrast, under 3-D conditions, endothelial cells cultured within fibrin gels in the absence of VEGF/HGF unexpectedly display a distorted morphology with multiple lamin A matrix and emerin infoldings and surface irregularities. Upon addition of VEGF/HGF, however, the nuclei of fibrin-embedded endothelial cells undergo a dramatic, and 3-D-specific, remodeling to assume a more classic, ovoid morphology. Three-dimensional reconstructions of DAPI-stained nuclei confirm that nuclear architecture transitions between multi-lobed and smooth elliptical shapes in the absence or presence, respectively, of VEGF/HGF.
Nuclear matrix architecture controls the distribution of the nuclear pore complexes that regulate the trafficking of protein and RNA across the nuclear envelope (Goldman et al., 2004. Proc. Natl. Acad. Sci. USA, 101: 8963-8968; Hawryluk-Gara et al., 2005. Mol. Biol. Cell, 16: 2382-2394; Liu et al., 2007. J. Cell. Biol., 178: 785-798). As such, the localization of nuclear pores was assessed in intact cells by monitoring the localization of the component protein, NUP153. In 3-D culture, unstimulated endothelial cells accumulate NUP153-containing pore complexes at nuclear membrane invaginations. In contrast, the nuclei of VEGF/HGF-stimulated endothelial cells display a uniform distribution of pore complexes in nuclear membranes.
To determine the roles of MMP-dependent proteolysis and fibronectin matrix assembly in mediating nuclear shape and nuclear pore complex changes, fibrin-embedded endothelial cells were stimulated with VEGF/HGF in the presence of FUD or GM6001. […]

Setting [4] is: 3-D culture, VEGF/HGF-stimulated, blebbistatin or nocodazole.

On to `CNC(=O)[C@H](Cc1c[nH]c2ccccc12)NC(=O)[C@@H](CC(=O)NO)CC(C)C` [GM6001], for which the “3-D pericellular rigidity (shear modulus by AFM)” value in test [1] is “significantly lower”. The “growth of VEGF/HGF-stimulated endothelial cells” value in test [2] is “neither GM6001 nor FUD affect the growth”. Moreover, the “elongation, proliferation and neovessel formation” value in test [2] (VEGF/HGF-stimulated) is “failed to elongate, proliferate or form neovessels”. Also, in test [3], the nuclear architecture entry was “unaffected”. Further, the “TUNEL staining with formation of multi-lobed nuclei” value in test [3] (3-D culture) is “does not correlate with increased TUNEL staining”. For the same compound, in test [3] (VEGF/HGF-stimulated), the nuclear shape entry is “locked endothelial cell nuclei into the multi-lobular conformation” and the “redistribution of nuclear pore complexes” value is given as “completely failed to redistribute”.
On to `Cc1ccc2c(c1)C(=O)C1(O)CCN(c3ccccc3)C1=N2` (stereo not shown) [blebbistatin], for which the “endothelial cell 3-D tubulogenesis” value in test [2] (setting [4]) is “completely inhibit”. Besides, the “nuclear shape and nuclear pore distribution” value in test [3] (setting [4]) was “multi-lobed nuclei with perturbations in nuclear pore distribution”.
For the compound “FUD: 49-residue functional upstream domain of Streptococcus pyogenes F1 adhesion protein, SEQ ID NO: 10; fibronectin fibril assembly inhibitor (KDQSPLAGESGETEYITEVYGNQQNPVDIDKKLPNETGFSGNMVETEDT; Streptococcus pyogenes; Functional Upstream Domain (FUD) of F1 adhesion protein)”, the “3-D pericellular rigidity (shear modulus by AFM)” value in test [1] is “significantly lower”. The “growth of VEGF/HGF-stimulated endothelial cells” value in test [2] is on record as “neither GM6001 nor FUD affect the growth”. Moreover, the “elongation, proliferation and neovessel formation” value in test [2] (VEGF/HGF-stimulated) was “failed to elongate, proliferate or form neovessels”. Also, the nuclear architecture entry in test [3] was “unaffected”. Further, the “TUNEL staining with formation of multi-lobed nuclei” value in test [3] (3-D culture) is “does not correlate with increased TUNEL staining”. In test [3] (VEGF/HGF-stimulated), the nuclear shape result is reported as “locked endothelial cell nuclei into the multi-lobular conformation” and the “redistribution of nuclear pore complexes” value is given as “completely failed to redistribute”.
